Test results taken from patent US7273847B2, “Peptides with antioxidant and antimicrobial properties” (priority 2000, dated 2007).

Experiments:
E. coli = experiment: CFU count over a six hour incubation; assay type: cell-based; details: at 1 and 2 hrs; confounded by bacterial aggregation
LDL = experiment: Western (immunoblot) analysis of protein carbonyl derivatives formed during copper mediated LDL oxidation; assay type: biochemical, human; details: SP-A 10 μg/ml, SP-D 1 μg/ml; alkylated SP-A 50 μg/ml, alkylated SP-D 10 μg/ml
Experimental: Proteins were analyzed for carbonyl modification of amino acid side groups that occur during lipid oxidation, as described in Levine et al., Methods Enzymol. 186, 464-478 (1990). Briefly, proteins that were included in reactions mixtures with LDL and 10 μM copper were derivatized to 2,4-dinitrophenylhydrazones (DNP-hydrazones) by reaction with 2,4-dinitrophenylhydrazine (DNPH), size fractionated by 8-16% SDS-PAGE under reducing conditions and electrophorectically transferred to nitrocellulose membranes (Oxyblot, Intergen). The membrane was sequentially incubated with a rabbit anti-DNP IgG and a horseradish peroxidase-conjugated goat anti-rabbit IgG. Blots were developed by HRP-dependent oxidation of a chemiluminescent substrate, and visualized using autoradiography.
To determine if the surfactant proteins act as sinks for reactive lipid intermediates, covalent modification of SP-A and SP-D during LDL oxidation was assessed using a western analysis technique that detects carbonyl adducts (Levine et al., Methods Enzymol. 186: 464-78 (1990)). As depicted by FIG. 4, oxidative modification of proteins that occurred during copper induced LDL oxidation were determined by Western analysis using an antibody to DNP-derivatized carbonyl moieties. Reaction mixtures contained LDL only, LDL+Cu^2+, LDL+Cu^2++albumin+10 μg/ml SP-A, LDL+Cu^2++albumin+1 μg/ml SP-D, LDL+Cu^2++albumin, LDL+Cu^2++albumin+50 μg/ml iodoacetamide treated SP-A, LDL+Cu^2++albumin+10 μg/ml iodoacetamide treated SP-D, 50 μg/ml albumin+50 μg/ml iodoacetamide treated SP-A, albumin+10 μg/ml iodoacetamide treated SP-D.

RAW 264.7 macrophages = experiment: Protection from t-BOOH induced cell death (Trypan Blue exclusion); assay type: cell-based, murine; details: 40 μM t-BOOH, 24 hrs; for Half maximal concentration for protection from t-BOOH-induced death: Trypan Blue
Experimental: A murine macrophage cell line (RAW 264.7) was adhered to 24-well plates (2×10^4 cells/well) in Ham's F12 media containing 10% FBS overnight at 37° C. in a 10% CO2 atmosphere. After washing, the cells were exposed to 40 μM tert-butyl hydroperoxide (t-BOOH) in serum free Ham's F12 for 24 hrs in the presence of various concentrations of the surfactant proteins. Viability was assessed for exclusion of the vital dye Trypan Blue.
Exposure of cultured mammalian cells to tert-butylhydroperoxide (t-BOOH) promotes a variety of toxic events including depletion of glutathione, mitochondrial dysfunction and peroxidation of membrane lipids, as described in Sestili et al., FEBS Lett. 457(1):139-143 (1999). To determine if SP-A and SP-D protect cells from oxidative stress, RAW 264.7 murine macrophages were exposed to 40 μM t-BOOH for 24 hrs in the presence of SP-A or SP-D at concentrations from 0.01 to 50 μg/ml. Cell death was assessed by staining cells with the vital dye Trypan Blue. As depicted by FIG. 5, RAW 264.7 macrophages were incubated with various concentrations of SP-A or SP-D and 40 μM t-BOOH. Cell viability was assessed by counting the percentage of cells that excluded the vital dye Trypan Blue. Data are mean±S.E.M., n=3 for collectins except 50 μg/ml point where n=2.

surfactant lipids = experiment: TBARS assay of copper-induced oxidation of surfactant lipids; assay type: biochemical; details: for I.C.50 (half maximal concentration) for inhibition of copper-induced oxidation of surfactant lipids / Concentration of complete inhibition / maximal protection of surfactant lipids: 10 μM Cu2+, 24 hr, TBARS; for I.C.50 (half maximal concentration) for inhibition of copper-induced oxidation of surfactant lipids: 37° C.; for Lipid peroxidation (LPO) produced by copper or iron: 24 hr incubation, 10 μM copper or iron; for TBARS Surfactant lipids Malondialdehyde: mean ± S.E.M., n=3; for IC50: assuming rat SP-A M.W.=600,000, rat SP-D M.W.=500,000, read-out: I.C.50 for inhibition of copper-induced oxidation of surfactant lipids
[1] = system: P. aeruginosa (PAO1 mutant); experiment: Radial diffusion assay; assay type: cell-based
[2] = surfactant lipids, copper-induced

SP-A: Native surfactant protein A isolated from the alveolar wash of silica-pretreated rats
Decrease in number of CFUs (E. coli): 90% | LDL oxidation in carbonyl Western analysis (LDL): blocked LDL oxidation without the appearance of carbonyl-modified species | Concentration at which protection reached a plateau (RAW 264.7 macrophages): approximately 1 μg/ml | Half maximal concentration for protection from t-BOOH-induced death (RAW 264.7 macrophages): 0.52 µg/mL | I.C.50 (half maximal concentration) for inhibition of copper-induced oxidation of surfactant lipids (surfactant lipids): 5.07 µg/mL | Concentration of complete inhibition / maximal protection of surfactant lipids (surfactant lipids): 10 µg/mL | Lipid peroxidation (LPO) produced by copper or iron (surfactant lipids): block lipid peroxidation | TBARS Surfactant lipids Malondialdehyde (surfactant lipids; Lipid + Cu2+ + 10 μg/ml protein): 0.23 ± 0.01 µM | IC50 (surfactant lipids): 8.4 nM | Effect of alkylation with iodoacetamide on the antioxidant effects (surfactant lipids; [2]): completely blocked the antioxidant effects | Effect of presaturation with 70 uM copper or addition of 2 mM Ca2+ on antioxidant activity (surfactant lipids; [2]): neither the presaturation of SP-A with 70 uM copper, as indicated in Table 1, below, or the addition of 2 mM Ca^2+ (not shown) had a significant effect on the activity | Concentration required to achieve the same level of inhibition of oxidation (surfactant lipids; surfactant lipids, level reached by 500 μg/ml rat serum): about 5.0 μg/ml | Growth of P. aeruginosa (PAO1 mutant) [1]: inhibited the growth

B1: SP-D: Native surfactant protein D from rat alveolar wash; mouse SP-D was used interchangeably with rat SP-D (protein)
chain: AEMKSLSQRSVPNTCTLVMCSPTENGLPGRDGRDGREGPRGEKGDPGLPGPMGLSGLQGPTGPVGPKGENGSAGEPGPKGERGLSGPPGLPGIPGPAGKEGPSGKQGNIGPQGKPGPKGEAGPKGEVGAPGMQGSTGAKGSTGPKGERGAPGVQGAPGNAGAAGPAGPAGPQGAPGSRGPPGLKGDRGVPGDRGIKGESGLPDSAALRQQMEALKGKLQRLEVAFSHYQKAALFPDGRSVGDKIFRTADSEKPFEDAQEMCKQAGGQLASPRSATENAAIQQLITAHNKAAFLSMTDVGTEGKFTYPTGEPLVYSNWAPGEPNNNGGAENCVEIFTNGQWNDKACGEQRLVICEF
LDL oxidation in carbonyl Western analysis (LDL): blocked LDL oxidation without the appearance of carbonyl-modified species | Concentration at which protection reached a plateau (RAW 264.7 macrophages): approximately 1 μg/ml | Half maximal concentration for protection from t-BOOH-induced death (RAW 264.7 macrophages): 0.56 µg/mL | I.C.50 (half maximal concentration) for inhibition of copper-induced oxidation of surfactant lipids (surfactant lipids): 0.11 µg/mL | Concentration of complete inhibition / maximal protection of surfactant lipids (surfactant lipids): ≥ 0.5 µg/mL | Lipid peroxidation (LPO) produced by copper or iron (surfactant lipids): block lipid peroxidation | TBARS Surfactant lipids Malondialdehyde (surfactant lipids; Lipid + Cu2+ + 1 μg/ml protein): 0.27 ± 0.07 µM | IC50 (surfactant lipids): 0.2 nM | I.C.50 fold lower than ApoAIV (surfactant lipids; surfactant lipids oxidation): ~100 fold | I.C.50 fold lower than SP-A (surfactant lipids; surfactant lipids oxidation): approximately 35 fold | Effect of alkylation with iodoacetamide on the antioxidant effects (surfactant lipids; [2]): completely blocked the antioxidant effects
